# Results reported in ChEMBL document CHEMBL1201862, “PubChem BioAssay data set” (2004).
#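 Dose response: 5 concentrations. Exposure: 48 h. Format: 96-well plates. Endpoint: linear interpolation; highest concentration if not reached. GI50 = concentration required for 50% inhibition of growth.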 Calls of active or inactive are those of the source. Rule as the data show it: active = GI50 up to about 1.1 µM and inactive = higher.
# Experiments:
# Test in all cases: growth of human tumour cells (NCI), 48 h
# SNB-19 = tested on: SNB-19
# SW-620 = tested on: SW-620
# SK-MEL-2 = tested on: SK-MEL-2
# PC-3 = tested on: PC-3
# K562 = tested on: K562
# A498 = tested on: A498
# SK-MEL-28 = tested on: SK-MEL-28
# IGROV-1 = tested on: IGROV-1
# UO-31 = tested on: UO-31
# SK-MEL-5 = tested on: SK-MEL-5
# MDA-MB-435 = tested on: MDA-MB-435
# SNB-75 = tested on: SNB-75
# UACC-257 = tested on: UACC-257
# BT-549 = tested on: BT-549
# MDA-N = tested on: MDA-N
# HOP-62 = tested on: HOP-62
# Malme-3M = tested on: Malme-3M
# NCI/ADR-RES = tested on: NCI/ADR-RES
# 786-0 = tested on: 786-0
# HCT-116 = tested on: HCT-116
Structure (SMILES),GI50 (SNB-19),GI50 (SW-620),GI50 (SK-MEL-2),GI50 (PC-3),GI50 (K562),GI50 (A498),GI50 (SK-MEL-28),GI50 (IGROV-1),GI50 (UO-31),GI50 (SK-MEL-5),GI50 (MDA-MB-435),GI50 (SNB-75),GI50 (UACC-257),GI50 (BT-549),GI50 (MDA-N),GI50 (HOP-62),GI50 (Malme-3M),GI50 (NCI/ADR-RES),GI50 (786-0),GI50 (HCT-116)
Cc1c2cnccc2c(C)c2c1c1ccccc1n2CCOC(=O)c1ccccc1,10.7 µM (inactive),6.31 µM (inactive),12.5 µM (inactive),28.6 µM (inactive),9.71 µM (inactive),1.75 µM (inactive),15.2 µM (inactive),9.44 µM (inactive),3.1 µM (inactive),16.2 µM (inactive),14.4 µM (inactive),22.9 µM (inactive),12.4 µM (inactive),33 µM (inactive),17.6 µM (inactive),13.2 µM (inactive),11.5 µM (inactive),8.49 µM (inactive),11.5 µM (inactive),5.41 µM (inactive)
CN(CCNC(=O)c1cn(C)c2c1ccc1ccccc12)CCNC(=O)c1cn(C)c2c1ccc1ccccc12,3.57 µM (inactive),2.7 µM (inactive),2.2 µM (inactive),2.42 µM (inactive),0.365 µM (active),10.6 µM (inactive),1.97 µM (inactive),1.62 µM (inactive),1.91 µM (inactive),2.6 µM (inactive),2.2 µM (inactive),1.79 µM (inactive),2.12 µM (inactive),1.26 µM (inactive),2.22 µM (inactive),1.85 µM (inactive),2.14 µM (inactive),7.82 µM (inactive),2.04 µM (inactive),1.99 µM (inactive)
COC(C(O)CO)C(O)C(O)C(=O)NNc1ccccc1 (stereo not given),> 100 µM (inactive),8.49 µM (inactive),38.9 µM (inactive),> 100 µM (inactive),4.05 µM (inactive),> 100 µM (inactive),> 100 µM (inactive),47.4 µM (inactive),> 100 µM (inactive),37.2 µM (inactive),40.3 µM (inactive),> 100 µM (inactive),> 100 µM (inactive),> 100 µM (inactive),20 µM (inactive),> 100 µM (inactive),> 100 µM (inactive),16.5 µM (inactive),> 100 µM (inactive),> 100 µM (inactive)
NC1=NCC(CN2CCOCC2)O1 (stereo not given),> 100 µM (inactive),> 100 µM (inactive),> 100 µM (inactive),> 100 µM (inactive),> 100 µM (inactive),> 100 µM (inactive),> 100 µM (inactive),> 100 µM (inactive),> 100 µM (inactive),> 100 µM (inactive),> 100 µM (inactive),62.2 µM (inactive),> 100 µM (inactive),> 100 µM (inactive),> 100 µM (inactive),> 100 µM (inactive),> 100 µM (inactive),> 100 µM (inactive),> 100 µM (inactive),> 100 µM (inactive)
CNC(=S)N/N=C(\C)c1ccc(OC)cc1O,> 100 µM (inactive),> 100 µM (inactive),> 100 µM (inactive),> 100 µM (inactive),0.7 µM (active),95.7 µM (inactive),> 100 µM (inactive),22.5 µM (inactive),> 100 µM (inactive),7.45 µM (inactive),> 100 µM (inactive),> 100 µM (inactive),> 100 µM (inactive),> 100 µM (inactive),> 100 µM (inactive),> 100 µM (inactive),> 100 µM (inactive),28.8 µM (inactive),> 100 µM (inactive),> 100 µM (inactive)
C=CC(CCc1ccc(C(=O)OCC)cc1)c1c(N)nc(N)[nH]c1=O (stereo not given),> 100 µM (inactive),> 100 µM (inactive),> 100 µM (inactive),52.6 µM (inactive),> 100 µM (inactive),21.2 µM (inactive),> 100 µM (inactive),> 100 µM (inactive),43.7 µM (inactive),23.5 µM (inactive),> 100 µM (inactive),47.8 µM (inactive),35.1 µM (inactive),> 100 µM (inactive),76.6 µM (inactive),> 100 µM (inactive),89.9 µM (inactive),> 100 µM (inactive),> 100 µM (inactive),> 100 µM (inactive)
c1ccc(-c2nnn(CCN3CCCCC3)n2)cc1,> 100 µM (inactive),> 100 µM (inactive),> 100 µM (inactive),> 100 µM (inactive),> 100 µM (inactive),> 100 µM (inactive),> 100 µM (inactive),> 100 µM (inactive),> 100 µM (inactive),> 100 µM (inactive),> 100 µM (inactive),> 100 µM (inactive),> 100 µM (inactive),> 100 µM (inactive),> 100 µM (inactive),> 100 µM (inactive),> 100 µM (inactive),> 100 µM (inactive),> 100 µM (inactive),> 100 µM (inactive)
CN(C)c1ccc(/C=C2\C[C@H]3[C@@H]4CC=C5C[C@@H](N6CCCC6)CC[C@]5(C)[C@H]4CC[C@]3(C)[C@H]2O)cc1,1.5 µM (inactive),1.3 µM (inactive),1.07 µM (active),2.18 µM (inactive),1.21 µM (inactive),1.01 µM (active),0.977 µM (active),0.989 µM (active),0.838 µM (active),0.923 µM (active),1.35 µM (inactive),0.959 µM (active),0.957 µM (active),3.18 µM (inactive),1.01 µM (active),1.71 µM (inactive),0.938 µM (active),1.62 µM (inactive),0.659 µM (active),0.897 µM (active)
CCC(=O)OCOc1ccc(/C=C2\CCC(CN(C)C)C2=O)cc1 (stereo not given),16.7 µM (inactive),2.32 µM (inactive),11 µM (inactive),14.2 µM (inactive),1.85 µM (inactive),15.9 µM (inactive),4.29 µM (inactive),6.44 µM (inactive),7.8 µM (inactive),11.7 µM (inactive),3.34 µM (inactive),12.8 µM (inactive),3.39 µM (inactive),2.05 µM (inactive),5.47 µM (inactive),15.2 µM (inactive),3.96 µM (inactive),2.96 µM (inactive),2.45 µM (inactive),2.74 µM (inactive)
O=C1N/C(=N\N=C\c2ccccc2)C2(CCCCC2)O1,> 100 µM (inactive),> 100 µM (inactive),> 100 µM (inactive),80.4 µM (inactive),35 µM (inactive),> 100 µM (inactive),> 100 µM (inactive),> 100 µM (inactive),43.1 µM (inactive),55.8 µM (inactive),> 100 µM (inactive),20.5 µM (inactive),> 100 µM (inactive),> 100 µM (inactive),> 100 µM (inactive),83.4 µM (inactive),> 100 µM (inactive),42.5 µM (inactive),64.9 µM (inactive),59.2 µM (inactive)
